Reference: the supplement of paper PMC10307832

Assays:
Experiment in all cases: relative viability (nuclei count vs DMSO), 5 days (fraction); higher = more cells survive
[1] = compound: CO[C@@H]1[C@H](N(C)C(=O)c2ccccc2)C[C@H]2O[C@]1(C)n1c3ccccc3c3c4c(c5c6ccccc6n2c5c31)C(=O)NC4 [Midostaurin] + CC(=O)c1c(C)c2cnc(Nc3ccc(N4CCNCC4)cn3)nc2n(C2CCCC2)c1=O [Palbociclib] (partner 0.5 µM)
Method in brief: (§1)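 A single step with final 0.05% Triton X-100, 1% formaldehyde and 1 ug/ml Hoechst fixed the cells and stained nuclei 5 days after treatment. Lung cancer cell lines in 1536-well plates had been treated by pin tool the day after seeding with one drug alone or a fixed anchor-drug dose plus five library-drug doses (not always all listed) in √10 steps, and nuclei were counted on 4× images. Relative viability is the ratio of nuclei in treated wells to nuclei in vehicle wells, taken as the median of duplicate plates.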

[2] = compound: COc1cc(-c2nn([C@H]3CC[C@H](N4CCN(C(C)=O)CC4)CC3)c3ncnc(N)c23)ccc1NC(=O)c1cc2ccccc2n1C + C[C@]1(O)C[C@@H](c2nc(-c3ccc4ccc(-c5ccccc5)nc4c3)c3c(N)nccn32)C1 [Linsitinib] (partner 1 µM)
Method in brief: as §1

[3] = compound: COc1cc(-c2nn([C@H]3CC[C@H](N4CCN(C(C)=O)CC4)CC3)c3ncnc(N)c23)ccc1NC(=O)c1cc2ccccc2n1C + C[C@@H](Oc1cc(-c2cnn(C3CCNCC3)c2)cnc1N)c1c(Cl)ccc(F)c1Cl [Crizotinib] (partner 1 µM)
Method in brief: as §1

[4] = compound: COc1cc(-c2nn([C@H]3CC[C@H](N4CCN(C(C)=O)CC4)CC3)c3ncnc(N)c23)ccc1NC(=O)c1cc2ccccc2n1C + CCNC(=O)c1noc(-c2cc(C(C)C)c(O)cc2O)c1-c1ccc(CN2CCOCC2)cc1 [Luminespib] (partner 0.01 µM)
Method in brief: as §1

[5] = compound: CO[C@@H]1[C@H](N(C)C(=O)c2ccccc2)C[C@H]2O[C@]1(C)n1c3ccccc3c3c4c(c5c6ccccc6n2c5c31)C(=O)NC4 [Midostaurin] + CC1(C)CCC(c2ccc(Cl)cc2)=C(CN2CCN(c3ccc(C(=O)NS(=O)(=O)c4ccc(N[C@H](CCN5CCOCC5)CSc5ccccc5)c(S(=O)(=O)C(F)(F)F)c4)cc3)CC2)C1 [Navitoclax] (partner 0.5 µM)
Method in brief: as §1

Row | Cell Line | relative viability ([1]; first compound 0.01 µM) | relative viability ([1]; first compound 0.03162 µM) | relative viability ([1]; first compound 0.1 µM) | relative viability ([1]; first compound 0.3162 µM) | relative viability ([2]; first compound 0.0128 µM) | relative viability ([2]; first compound 0.04048 µM) | relative viability ([2]; first compound 0.128 µM) | relative viability ([2]; first compound 1.28 µM) | relative viability ([3]; first compound 0.0128 µM) | relative viability ([3]; first compound 0.04048 µM) | relative viability ([3]; first compound 0.128 µM) | relative viability ([3]; first compound 1.28 µM) | relative viability ([4]; first compound 0.0128 µM) | relative viability ([4]; first compound 0.04048 µM) | relative viability ([4]; first compound 0.128 µM) | relative viability ([4]; first compound 1.28 µM) | relative viability ([5]; first compound 0.01 µM) | relative viability ([5]; first compound 0.03162 µM) | relative viability ([5]; first compound 0.1 µM) | relative viability ([5]; first compound 0.3162 µM)
1 | NCI-H1355 | 0.409 | 0.429 | 0.443 | 0.468 | 0.997 | 0.867 | 0.918 | 0.818 | 1.15 | 1.07 | 1.06 | 0.946 | 0.798 | 0.7 | 0.726 | 0.639 | 0.966 | 0.924 | 1.01 | 0.847
2 | NCI-H1437 | 0.353 | 0.326 | 0.34 | 0.367 | 0.987 | 1.08 | 0.986 | 0.523 | 1.06 | 0.877 | 0.922 | 0.846 | 1.24 | 1.16 | 1.12 | 1.08 | 1.13 | 1.03 | 1.07 | 1.12
3 | NCI-H1651 | 0.518 | 0.52 | 0.525 | 0.53 | 0.879 | 1.11 | 0.871 | 0.638 | 0.902 | 0.908 | 0.81 | 0.712 | 0.797 | 0.859 | 0.942 | 0.743 | 1.01 | 1.07 | 0.897 | 0.898
4 | NCI-H1666 | 0.634 | 0.669 | 0.661 | 0.657 | 0.804 | 0.816 | 0.733 | 0.771 | 0.909 | 0.904 | 0.97 | 0.827 | 0.926 | 0.994 | 1.01 | 1.04 | 0.872 | 0.855 | 0.84 | 0.846
5 | NCI-H1734 | 0.334 | 0.38 | 0.373 | 0.351 | 0.847 | 0.772 | 0.873 | 0.717 | 0.745 | 0.596 | 0.669 | 0.56 | 0.219 | 0.19 | 0.16 | 0.172 | 0.829 | 0.813 | 0.798 | 0.697
6 | NCI-H1755 | 0.482 | 0.433 | 0.429 | 0.383 | 1.12 | 0.966 | 0.92 | 0.939 | 1 | 0.795 | 0.875 | 0.616 | 0.501 | 0.418 | 0.48 | 0.308 | 0.966 | 0.927 | 0.828 | 0.627
7 | NCI-H1792 | 0.593 | 0.709 | 0.635 | 0.634 | 0.565 | 0.485 | 0.392 | 0.449 | 0.958 | 1.01 | 0.88 | 0.896 | 0.424 | 0.46 | 0.498 | 0.35 | 0.613 | 0.591 | 0.601 | 0.647
8 | NCI-H1915 | 0.451 | 0.523 | 0.531 | 0.524 | 1.17 | 1.13 | 1.11 | 1.03 | 0.87 | 0.942 | 0.866 | 0.869 | 0.877 | 0.691 | 0.625 | 0.678 | 0.8 | 0.827 | 0.794 | 0.799
9 | NCI-H1944 | 0.36 | 0.402 | 0.318 | 0.35 | 1.18 | 1.16 | 1.06 | 0.839 | 1.12 | 1.14 | 1.02 | 0.787 | 0.667 | 0.647 | 0.783 | 0.477 | 1.03 | 1.18 | 1.11 | 1.15
10 | NCI-H1975 | 0.524 | 0.65 | 0.564 | 0.583 | 0.872 | 1.06 | 0.837 | 0.407 | 0.869 | 1.18 | 0.966 | 0.424 | 0.249 | 0.186 | 0.159 | 0.123 | 1.13 | 1.07 | 1.04 | 0.818
11 | NCI-H1993 | 0.495 | 0.802 | 0.794 | 0.656 | 0.91 | 0.691 | 0.698 | 0.611 | 0.925 | 0.902 | 0.803 | 0.645 | 0.768 | 0.825 | 0.589 | 0.767 | 0.964 | 0.901 | 0.972 | 0.992
12 | NCI-H2009 | 0.175 | 0.192 | 0.287 | 0.404 | 1.2 | 1.18 | 1.2 | 0.931 | 1.09 | 0.94 | 1.04 | 0.906 | 1.1 | 1.14 | 1.04 | 1.08 | 1.16 | 1.14 | 1.03 | 1.15
13 | NCI-H2023 | 0.482 | 0.428 | 0.341 | 0.192 | 0.7 | 0.641 | 0.624 | 0.531 | 0.587 | 0.736 | 0.592 | 0.412 | 0.697 | 0.983 | 0.622 | 0.767 | 1.07 | 0.898 | 0.92 | 0.903
14 | NCI-H2085 | 0.497 | 0.467 | 0.491 | 0.494 | 0.832 | 0.932 | 0.834 | 0.851 | 0.86 | 0.912 | 0.977 | 0.695 | 0.416 | 0.524 | 0.445 | 0.43 | 1.16 | 1.06 | 1.02 | 0.757
15 | NCI-H2087 | 0.213 | 0.232 | 0.268 | 0.27 | 1.1 | 0.875 | 1.12 | 1.11 | 1.1 | 1 | 0.703 | 0.947 | 0.196 |  | 0.165 | 0.152 | 1 | 0.98 | 0.875 | 0.897
